Reference: patent US5886165A, “Mixed backbone antisense oligonucleotides containing 2'-5'-ribonucleotide- and 3'-5'-deoxyribonucleotides segments” (Hybridon, Inc., priority 1996, dated 1999)
[25] = 2'-5' internucleotide linkage (phosphodiester)

Tests used:
[1] = system: citrated normal human donor plasma; test: Clotting assay, activated partial thromboplastin time (aPTT); conditions: compared to saline control
Procedure: The activated partial thromboplastin time (aPTT) was performed with citrated normal human donor plasma in duplicate on an Electra 1000C (Medical Laboratory Automation, Mount Vernon, N.Y.) according to recommended procedures using Actin FSL (Baxter Dade, Miami, Fla.) and 2.5 mM calcium to initiate clot formation, which was measured photometrically. Normal plasma aPTT values ranged from 27 to 39 sec. Data were calculated as 50% of prolongation as compared to the saline control.

[2] = system: RNA target strand SEQ ID NO 9 (25 base sequence from the initiation codon region of the HIV-1 gag mRNA); test: Thermal melting study, duplex with RNA target strand; type: binding
Procedure: (§1) Thermal denaturation studies were carried out by mixing MBOs with the DNA or RNA target strands in equimolar ratios in 10 mM disodium hydrogen phosphate, pH 7.5±0.1, 100 mM sodium chloride buffer, heated to 95° C. for 10 min, and allowed to come to room temperature slowly before being stored at 4° C. overnight. The final total concentration of the oligonucleotide strands was 2.0 μM. Spectrophotometric measurements were performed at 260 nm using 1 cm path length quartz cuvettes at a heating rate of 0.5° C./min on a Perkin-Elmer (Norwalk, Conn.) Lambda 2 Specotrometer attached to a thermal controller and a personal computer. Melting temperatures (Tm) taken as the temperature of half-dissociation and were obtained from first derivative plots. Precision in Tm values estimated from variance in two or three repeated experiments was ±0.5° C.

S1 nuclease = target: T1, S1 nuclease (Aspergillus oryzae, UniProt P24021); test: S1 nuclease assay; type: in vitro ADME; conditions: 1.4 U, 37° C., pH 5.0
T1 construct: purchased Gibco/BRL
T1 sequence (P24021 21-287): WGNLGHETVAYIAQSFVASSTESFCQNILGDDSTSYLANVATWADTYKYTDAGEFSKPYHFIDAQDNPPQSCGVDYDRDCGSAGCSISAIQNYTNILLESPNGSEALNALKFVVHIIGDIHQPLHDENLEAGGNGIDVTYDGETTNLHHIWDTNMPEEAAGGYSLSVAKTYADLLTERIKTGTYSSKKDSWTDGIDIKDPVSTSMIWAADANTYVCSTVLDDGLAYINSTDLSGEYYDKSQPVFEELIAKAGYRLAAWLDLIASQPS
Procedure: (§2) For snake venom phosphodiesterase assay, labeled oligonucleotide with cold oligonucleotide in a buffer (10 mM Tris, pH 8.0, 100 mM sodium chloride, and 10 mM magnesium chloride) was incubated with 0.01 U of snake venom phosphodiesterase (Boehringer-Mannheim, Indianapolis, Ind.) at 21° C. (final volume 40 μl). Aliquots were removed at different time intervals for electrophoretic gel analysis. For S1 nuclease assay, reactions were carried out as above but in […] sodium acetate, pH 5.0, 10 mM zinc acetate buffer and with 1.4 U of S1 nuclease (Gibco/BRL) incubated at 37° C. in a final volume of 50 μl. Aliquots were removed at different time intervals for electrophoretic gel analysis. Nuclease reactions were stopped by adding 5 μl of formamide gel loading buffer to each sample and heating at 90° C. for 5 min. All the samples were then run by 20% PAGE (7M urea) and visualized by autoradiography.

[3] = Stability in DMEM cell culture medium containing 10% fetal calf serum; type: in vitro ADME; conditions: DMEM with 10% non-heat-inactivated fetal calf serum, 37° C.
Procedure: Oligonucleotides were labeled at the 5'-end with ^32 P using γ-^32 P-ATP (Amersham) and T4 polynucleotide kinase (Promega). Sambrook et al, Molecular Cloning, supra. Stability of the oligonucleotides in cell culture medium containing 10% fetal calf serum was tested by incubating a small amount of labeled oligonucleotide together with 100 ng of cold oligonucleotide in DMEM cell culture medium (Gibco/BRL, Grand Island, N.Y.) containing 10% non-heat-inactivated fetal calf serum (Gibco/BRL) at 37° C. in a final volume of 40 μl, and aliquots were removed at different times.

Spleen cells (CD1 mouse) = test: In vitro cell proliferation assay ([3H]thymidine); type: cell-based; conditions: at 10 μg/ml, 48 hrs
Procedure: Cell proliferation assays were carried out as described earlier (Zhao et al., Biochem. Pharmacol 51, 173-182 (1996)). Spleen cells (4-5 week old male CD1 mouse, 20-22 gm, Charles River, Wilmington, Mass.) suspensions were prepared and plated in 96-well dishes at a density of 10^6 cells/ml in a final volume of 100 μl. The cells were incubated at 37° C. after adding 10 μl of oligonucleotides. After 44 hrs incubation, 1 μCi [3H]thymidine (Amersham, Arlington Heights, Ill.) was added and the cells were pulse-labeled for another 4 hrs. The cells were harvested by an automatic cell harvester and the filters were counted by a scintillation counter. All experiments were carried out in triplicate.

[4] = system: DNA target strand SEQ ID NO 10 (25 base sequence from the initiation codon region of the HIV-1 gag mRNA); test: Thermal melting study, duplex with DNA target strand; type: binding
Procedure: as §1

[5] = system: snake venom phosphodiesterase; test: Snake venom phosphodiesterase assay; type: in vitro ADME; conditions: 0.01 U, 21° C.; compared with SEQ ID NO 7
Procedure: as §2

For “SEQ ID NO 1: Phosphodiester MBO with three 2'-5'-linkages at each of the 5'- and 3'-ends, complementary to HIV-1 gag mRNA (antisense CUCTCGCACCCATCTCTCTCCUUCT; linkages [25]3 o18 [25]3 (s phosphorothioate, o phosphodiester), sugars by position and methylation of C not given here)”, the “50% Prolongation of Clotting (aPTT)” value ([1]; human plasma) was > 100.0 µg/mL, the “effect in coagulation assay (in words)” value ([1]; up to 100 μg/ml dose) was “negligible effect” and the “Tm RNA” value ([2]; duplex with RNA SEQ ID NO 9, 10 mM disodium hydrogen phosphate pH 7.5, 100 mM NaCl, 2.0 μM total strands) was 67.8 °C. For the same substance, the “Tm lower than duplex of control oligonucleotide SEQ ID NO 7, RNA target” value ([2]; vs SEQ ID NO 7, RNA SEQ ID NO 9) was ~2.7 °C, the “digestion by S1 nuclease (in words)” value (S1 nuclease) was “quickly digested” and the “stability in serum (in words)” value [3] was “intact up to four hours”. For the same substance, the “Stimulation Index (Lymphocyte Proliferation)” value (Spleen cells (CD1 mouse)) was 0.67 ± 0.11, the “Tm DNA” value ([4]; duplex with DNA SEQ ID NO 10, 10 mM disodium hydrogen phosphate pH 7.5, 100 mM NaCl, 2.0 μM total strands) was 60.6 °C and the “Tm lower than duplex of control oligonucleotide SEQ ID NO 7, DNA target” value ([4]; vs SEQ ID NO 7, DNA SEQ ID NO 10) was “about 2.9 °C”. For the same substance, the “stability against snake venom phosphodiesterase (in words)” value [5] was “slightly higher stability”.
